In the supplement of paper PMC11208160:

Assay: recombinant UMI read abundance after kanamycin selection (control-corrected) (log10(CPM+1)); higher = more efficient recombination; extreme values may be limits of the assay; sequences stand for … in AGTGCAGAGAAAATCGGCCAGTTTTCTCTGCCTGCAGTCCGCATGCCGTGGGACCCCTTGGGTTCTAACCTGTTGCCTAGATTTATGCAGCGGACTGCCTTTCTCCCAAAGTGATAAACCGG…AGGTTGGTTTCACT; site = the 11-nt donor
Procedure, shortened: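 Pooled Escherichia coli screen of donor and donor-binding-loop pairs for the IS621 bridge recombinase. Each pair sits with a 12-nt UMI on a plasmid carrying a promoterless kanamycin gene. The library was co-electroporated with a target plasmid encoding a fixed target and T7-inducible recombinase, then plated with IPTG (0.07 mM) plus kanamycin, or unselected, each in two replicates. Recombinant UMIs were PCR-amplified across the donor–target junction and sequenced. Counts became CPM, averaged over replicates, scaled by control-derived factors and reported as log10(CPM+1).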

Row | Sequence | recombinant UMI read abundance (log10)
1 | GATTATGCATGGACCGGTTTTCCCGGTAATCCGTATTTGGA (site GATTATGCTTC) | 0.861
2 | GATTATGCATGGACCGGTTTTCCCGGTAATCCGTATTTGGA (site TATTATGCTTC) | 0.882
3 | GATTCATCATGGACCGGTTTTCCCGGTAATCCGTATTTGAG (site GATTCATCTCT) | 1.31
4 | GATTGGCCATGGACCGGTTTTCCCGGTAATCCGTATTTGCG (site GATTGGCCTCG) | 0.115
5 | GATTGTACATGGACCGGTTTTCCCGGTAATCCGTATTTGAC (site GATTGAACTGT) | 0
6 | GATTGTACATGGACCGGTTTTCCCGGTAATCCGTATTTGAC (site GATTGCACTGT) | 0
7 | GATTGTACATGGACCGGTTTTCCCGGTAATCCGTATTTGAC (site GATTGGACTGT) | 0
8 | GATTGTACATGGACCGGTTTTCCCGGTAATCCGTATTTGAC (site GATTGTACTGT) | 0.604
9 | GATTGTCCATGGACCGGTTTTCCCGGTAATCCGTATTTGCT (site GATTATCCTAG) | 0
10 | GATTGTCCATGGACCGGTTTTCCCGGTAATCCGTATTTGCT (site GATTCTCCTAG) | 0
11 | GATTGTCCATGGACCGGTTTTCCCGGTAATCCGTATTTGCT (site GATTGTCCTAG) | 0
12 | GATTGTCCATGGACCGGTTTTCCCGGTAATCCGTATTTGCT (site GATTTTCCTAG) | 0
13 | GATTTCGCATGGACCGGTTTTCCCGGTAATCCGTATTTGTC (site GATTTCGCTGA) | 1.51
14 | GATTTGACATGGACCGGTTTTCCCGGTAATCCGTATTTGAC (site GATTAGACTGT) | 0
15 | GATTTGACATGGACCGGTTTTCCCGGTAATCCGTATTTGAC (site GATTCGACTGT) | 0
16 | GATTTGACATGGACCGGTTTTCCCGGTAATCCGTATTTGAC (site GATTGGACTGT) | 0
17 | GATTTGACATGGACCGGTTTTCCCGGTAATCCGTATTTGAC (site GATTTGACTGT) | 0.525
18 | GCAAAAACATGGACCGGTTTTCCCGGTAATCCGTATTTGCT (site GCAAAAACTAG) | 0.226
19 | GCAAAAACATGGACCGGTTTTCCCGGTAATCCGTATTTGCT (site GCCAAAACTAG) | 0
20 | GCAAAAACATGGACCGGTTTTCCCGGTAATCCGTATTTGCT (site GCGAAAACTAG) | 0
21 | GCAAAAACATGGACCGGTTTTCCCGGTAATCCGTATTTGCT (site GCTAAAACTAG) | 0
22 | GCAAACCCATGGACCGGTTTTCCCGGTAATCCGTATTTGAT (site GCAAACCCTAT) | 1.75
23 | GCAAACGCATGGACCGGTTTTCCCGGTAATCCGTATTTGGT (site GCAAACGCTAC) | 1.71
24 | GCAAATTCATGGACCGGTTTTCCCGGTAATCCGTATTTGTA (site GCAAATTCTTA) | 1.32
25 | GCAACTGCATGGACCGGTTTTCCCGGTAATCCGTATTTGCC (site GCAACTGCTGG) | 0

Row | Sequence | recombinant UMI read abundance (log10)
26 | GCAACTGCATGGACCGGTTTTCCCGGTAATCCGTATTTGCC (site GCCACTGCTGG) | 0
27 | GCAACTGCATGGACCGGTTTTCCCGGTAATCCGTATTTGCC (site GCGACTGCTGG) | 0
28 | GCAACTGCATGGACCGGTTTTCCCGGTAATCCGTATTTGCC (site GCTACTGCTGG) | 0
29 | GCAATACCATGGACCGGTTTTCCCGGTAATCCGTATTTGTG (site GCAATACCTCA) | 0.00804
30 | GCAATTACATGGACCGGTTTTCCCGGTAATCCGTATTTGTC (site GCAATTACTGA) | 0.939
31 | GCACACCCATGGACCGGTTTTCCCGGTAATCCGTATTTGTT (site GCACACCCTAA) | 0.67
32 | GCACATCCATGGACCGGTTTTCCCGGTAATCCGTATTTGAC (site ACACATCCTGT) | 2.23
33 | GCACATCCATGGACCGGTTTTCCCGGTAATCCGTATTTGAC (site CCACATCCTGT) | 0
34 | GCACATCCATGGACCGGTTTTCCCGGTAATCCGTATTTGAC (site GCACATCCTGT) | 0
35 | GCACATCCATGGACCGGTTTTCCCGGTAATCCGTATTTGAC (site TCACATCCTGT) | 0.745
36 | GCACTTTCATGGACCGGTTTTCCCGGTAATCCGTATTTGGG (site GCACTTTCTCC) | 2.31
37 | GCAGACTCATGGACCGGTTTTCCCGGTAATCCGTATTTGTT (site GCAGACTCTAA) | 3.03
38 | GCAGATCCATGGACCGGTTTTCCCGGTAATCCGTATTTGCT (site GCAGATCCTAG) | 0
39 | GCAGATTCATGGACCGGTTTTCCCGGTAATCCGTATTTGTT (site GAAGATTCTAA) | 0
40 | GCAGATTCATGGACCGGTTTTCCCGGTAATCCGTATTTGTT (site GCAGATTCTAA) | 2.97
41 | GCAGATTCATGGACCGGTTTTCCCGGTAATCCGTATTTGTT (site GGAGATTCTAA) | 0
42 | GCAGATTCATGGACCGGTTTTCCCGGTAATCCGTATTTGTT (site GTAGATTCTAA) | 0.308
43 | GCAGGCCCATGGACCGGTTTTCCCGGTAATCCGTATTTGCT (site GCAGGCCCTAG) | 0.921
44 | GCAGGCGCATGGACCGGTTTTCCCGGTAATCCGTATTTGGT (site GCAGGCGCTAC) | 0.864
45 | GCAGGTGCATGGACCGGTTTTCCCGGTAATCCGTATTTGAT (site ACAGGTGCTAT) | 2.52
46 | GCAGGTGCATGGACCGGTTTTCCCGGTAATCCGTATTTGAT (site CCAGGTGCTAT) | 1.91
47 | GCAGGTGCATGGACCGGTTTTCCCGGTAATCCGTATTTGAT (site GCAGGTGCTAT) | 2.1
48 | GCAGGTGCATGGACCGGTTTTCCCGGTAATCCGTATTTGAT (site TCAGGTGCTAT) | 1.52
49 | GCAGTATCATGGACCGGTTTTCCCGGTAATCCGTATTTGCA (site ACAGTATCTTG) | 2.95
50 | GCAGTATCATGGACCGGTTTTCCCGGTAATCCGTATTTGCA (site CCAGTATCTTG) | 2.09

Row | Sequence | recombinant UMI read abundance (log10)
51 | GCAGTATCATGGACCGGTTTTCCCGGTAATCCGTATTTGCA (site GCAGTATCTTG) | 2.68
52 | GCAGTATCATGGACCGGTTTTCCCGGTAATCCGTATTTGCA (site TCAGTATCTTG) | 1.87
53 | GCAGTATCATGGACCGGTTTTCCCGGTAATCCGTATTTGGA (site ACAGTATCTTG) | 0.785
54 | GCAGTATCATGGACCGGTTTTCCCGGTAATCCGTATTTGGA (site GCAGTATCTTC) | 2.1
55 | GCATCGACATGGACCGGTTTTCCCGGTAATCCGTATTTGCA (site GCATCGACTTG) | 2.56
56 | GCATCTACATGGACCGGTTTTCCCGGTAATCCGTATTTGTG (site ACATCTACTCA) | 0.6
57 | GCATCTACATGGACCGGTTTTCCCGGTAATCCGTATTTGTG (site CCATCTACTCA) | 0.104
58 | GCATCTACATGGACCGGTTTTCCCGGTAATCCGTATTTGTG (site GCATCTACTCA) | 0.968
59 | GCATCTACATGGACCGGTTTTCCCGGTAATCCGTATTTGTG (site TCATCTACTCA) | 1.87
60 | GCATGCACATGGACCGGTTTTCCCGGTAATCCGTATTTGTA (site GAATGCACTTA) | 0.245
61 | GCATGCACATGGACCGGTTTTCCCGGTAATCCGTATTTGTA (site GCATGCACTTA) | 2.41
62 | GCATGCACATGGACCGGTTTTCCCGGTAATCCGTATTTGTA (site GGATGCACTTA) | 0.364
63 | GCATGCACATGGACCGGTTTTCCCGGTAATCCGTATTTGTA (site GTATGCACTTA) | 1.01
64 | GCATGCGCATGGACCGGTTTTCCCGGTAATCCGTATTTGTT (site GCATGCGCTAA) | 1.82
65 | GCATTGTCATGGACCGGTTTTCCCGGTAATCCGTATTTGCA (site GCATTGTCTTG) | 2.76
66 | GCCAAAACATGGACCGGTTTTCCCGGTAATCCGTATTTGCT (site GCAAAAACTAG) | 1.08
67 | GCCAAAACATGGACCGGTTTTCCCGGTAATCCGTATTTGCT (site GCCAAAACTAG) | 1
68 | GCCAAAACATGGACCGGTTTTCCCGGTAATCCGTATTTGCT (site GCGAAAACTAG) | 0
69 | GCCAAAACATGGACCGGTTTTCCCGGTAATCCGTATTTGCT (site GCTAAAACTAG) | 0
70 | GCCAAACCATGGACCGGTTTTCCCGGTAATCCGTATTTGGT (site GACAAACCTAC) | 0
71 | GCCAAACCATGGACCGGTTTTCCCGGTAATCCGTATTTGGT (site GCCAAACCTAC) | 0
72 | GCCAAACCATGGACCGGTTTTCCCGGTAATCCGTATTTGGT (site GGCAAACCTAC) | 0.0048
73 | GCCAAACCATGGACCGGTTTTCCCGGTAATCCGTATTTGGT (site GTCAAACCTAC) | 0
74 | GCCAACACATGGACCGGTTTTCCCGGTAATCCGTATTTGAT (site GCCAACACTAT) | 1.9
75 | GCCAAGCCATGGACCGGTTTTCCCGGTAATCCGTATTTGGG (site GCAAAGCCTCC) | 0.00342
